# Assay results: patent publication US20150105252A1, “SUBSTITUTED PYRAZOLES AS HERBICIDES” (E I DU PONT DE NEMOURS AND COMPANY, priority 2013, published 2015)
# Columns and labels:
# [1] = test system: lambsquarters; experiment: Test C preemergence; type: in vivo, Chenopodium album; settings: preemergence
# Procedure, shortened: (§1)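 Pre- and postemergence greenhouse screen; vehicle was a non-phytotoxic solvent mix with surfactant. Preemergence: treatment applied right after sowing into loam and sand. Postemergence: treated at 1–4 leaves. Visual rating at 13–15 days, 100 = complete control.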
# [2] = test system: velvetleaf; experiment: Test C postemergence; type: in vivo, Abutilon theophrasti; settings: postemergence
# Procedure, shortened: as §1
# [3] = test system: morningglory; experiment: Test C postemergence; type: in vivo, Ipomoea coccinea
# Procedure, shortened: as §1
# [4] = test system: kochia; experiment: Test C postemergence; type: in vivo, Kochia scoparia
# Procedure, shortened: as §1
# [5] = test system: pigweed; experiment: Test C postemergence; type: in vivo, Amaranthus retroflexus; settings: postemergence
# Procedure, shortened: as §1
# [6] = test system: waterhemp; experiment: Test C postemergence; type: in vivo, Amaranthus rudis; settings: postemergence
# Procedure, shortened: as §1
# [7] = test system: barnyardgrass; experiment: Test C postemergence; type: in vivo, Echinochloa crus-galli
# Procedure, shortened: as §1
# [8] = test system: chickweed; experiment: Test C postemergence; type: in vivo, Stellaria media
# Procedure, shortened: as §1
# [9] = test system: crabgrass, large; experiment: Test C postemergence; type: in vivo, Digitaria sanguinalis
# Procedure, shortened: as §1
# [10] = test system: galium; experiment: Test C postemergence; type: in vivo, Galium aparine
# Procedure, shortened: as §1
# [11] = test system: oat, wild; experiment: Test C postemergence; type: in vivo, Avena fatua
# Procedure, shortened: as §1
# [12] = test system: wheat; experiment: Test C postemergence; type: in vivo, Triticum aestivum; settings: postemergence
# Procedure, shortened: as §1
# [13] = test system: blackgrass; experiment: Test C postemergence; type: in vivo, Alopecurus myosuroides
# Procedure, shortened: as §1
# [14] = test system: lambsquarters; experiment: Test C postemergence; type: in vivo, Chenopodium album
# Procedure, shortened: as §1
# [15] = 250 g ai/ha, scale 0 to 100 (0 no effect, 100 complete control)
# [16] = Postemergence, 31 g ai/ha, visually evaluated after 13 to 15 days
# [17] = postemergence, 62 g ai/ha, scale 0 to 100
# [18] = postemergence, 250 g ai/ha, scale 0 to 100 (0 no effect, 100 complete control)
# [19] = postemergence, 125 g ai/ha, scale 0 to 100, 0 no effect, 100 complete control
smiles,measurement,setting,value
CCCc1cc(C(=O)NOCC)nn1Cc1ccnc(C(F)(F)F)c1 [Compound 185],Lambsquarters plant response rating,"[1]; 31 g ai/ha, visual rating, scale 0 to 100 (0 no effect, 100 complete control), 13 to 15 days",98
same,Lambsquarters plant response rating,"[1]; 62 g ai/ha, scale 0 to 100 (0 no effect, 100 complete control), 13 to 15 days",98
same,"Plant response rating, Lambsquarters","[1]; 125 g ai/ha, 13 to 15 days, scale 0 to 100, 0 = no effect, 100 = complete control",100
same,Lambsquarters plant response rating,"[1]; 250 g ai/ha, scale 0 to 100, 0 is no effect, 100 is complete control",100
same,"Plant response rating, Velvetleaf",[2]; [15],35
same,Velvetleaf plant response rating,[2]; scale 0 to 100,25
same,"Plant response rating (scale of 0 to 100 where 0 is no effect and 100 is complete control), Morningglory",[3]; [16],40
same,Morningglory plant response rating,[3]; [17],45
same,"Plant response rating, Morningglory",[3]; [18],75
same,"Plant response rating, Morningglory",[3]; [19],85
same,"Plant response rating (scale of 0 to 100 where 0 is no effect and 100 is complete control), Kochia",[4]; [16],50
same,Kochia plant response rating,[4]; [17],60
same,"Plant response rating, Kochia",[4]; [18],80
same,"Plant response rating, Kochia",[4]; [19],75
same,Pigweed plant response rating,"[5]; 62 g ai/ha, scale 0 to 100",50
same,"Plant response rating, Pigweed",[5]; [15],85
same,"Plant response rating, Pigweed","[5]; 125 g ai/ha, scale 0 to 100, 0 no effect, 100 complete control",75
same,"Plant response rating, Waterhemp",[6]; [15],85
same,Waterhemp plant response rating,[6]; scale 0 to 100,35
same,"Plant response rating (scale of 0 to 100 where 0 is no effect and 100 is complete control), Barnyardgrass",[7]; [16],0
same,Barnyardgrass plant response rating,[7]; [17],0
same,"Plant response rating, Barnyardgrass",[7]; [18],20
same,"Plant response rating, Barnyardgrass",[7]; [19],5
same,"Plant response rating (scale of 0 to 100 where 0 is no effect and 100 is complete control), Chickweed",[8]; [16],70
same,Chickweed plant response rating,[8]; [17],80
same,"Plant response rating, Chickweed",[8]; [18],85
same,"Plant response rating, Chickweed",[8]; [19],85
same,"Plant response rating (scale of 0 to 100 where 0 is no effect and 100 is complete control), Crabgrass, Large",[9]; [16],5
same,"Crabgrass, Large plant response rating",[9]; [17],5
same,"Plant response rating, Crabgrass, Large",[9]; [18],45
same,"Plant response rating, Crabgrass, Large",[9]; [19],5
same,"Plant response rating (scale of 0 to 100 where 0 is no effect and 100 is complete control), Galium",[10]; [16],40
same,Galium plant response rating,[10]; [17],40
same,"Plant response rating, Galium",[10]; [18],70
same,"Plant response rating, Galium",[10]; [19],45
same,"Plant response rating (scale of 0 to 100 where 0 is no effect and 100 is complete control), Oat, Wild",[11]; [16],5
same,"Oat, Wild plant response rating",[11]; [17],10
same,"Plant response rating, Oat, Wild",[11]; [18],15
same,"Plant response rating, Oat, Wild",[11]; [19],10
same,"Plant response rating, Wheat",[12]; [15],10
same,Wheat plant response rating,[12]; scale 0 to 100,5
same,"Plant response rating (scale of 0 to 100 where 0 is no effect and 100 is complete control), Blackgrass",[13]; [16],0
same,Blackgrass plant response rating,[13]; [17],0
same,"Plant response rating, Blackgrass",[13]; [18],5
same,"Plant response rating, Blackgrass",[13]; [19],5
same,"Plant response rating (scale of 0 to 100 where 0 is no effect and 100 is complete control), Lambsquarters",[14]; [16],70
same,Lambsquarters plant response rating,[14]; [17],35
same,"Plant response rating, Lambsquarters",[14]; [18],65
same,"Plant response rating, Lambsquarters",[14]; [19],45
